Structures can show the parent of a compound that is named as a salt.
Target: human GlyT1c transporter (Homo sapiens (Human), UniProt P48067)
Test: Radioligand binding assays using recombinant CHO cell membranes expressing human GlyT1
Conditions: read-out: radioligand binding Kiapp
Experimental: Radioligand binding to human GlyT1c transporter-expressing membranes was determined as described in Mezler et al., Molecular Pharmacology 74:1705-1715, 2008.

Chain of human GlyT1c transporter (P48067 whole entry): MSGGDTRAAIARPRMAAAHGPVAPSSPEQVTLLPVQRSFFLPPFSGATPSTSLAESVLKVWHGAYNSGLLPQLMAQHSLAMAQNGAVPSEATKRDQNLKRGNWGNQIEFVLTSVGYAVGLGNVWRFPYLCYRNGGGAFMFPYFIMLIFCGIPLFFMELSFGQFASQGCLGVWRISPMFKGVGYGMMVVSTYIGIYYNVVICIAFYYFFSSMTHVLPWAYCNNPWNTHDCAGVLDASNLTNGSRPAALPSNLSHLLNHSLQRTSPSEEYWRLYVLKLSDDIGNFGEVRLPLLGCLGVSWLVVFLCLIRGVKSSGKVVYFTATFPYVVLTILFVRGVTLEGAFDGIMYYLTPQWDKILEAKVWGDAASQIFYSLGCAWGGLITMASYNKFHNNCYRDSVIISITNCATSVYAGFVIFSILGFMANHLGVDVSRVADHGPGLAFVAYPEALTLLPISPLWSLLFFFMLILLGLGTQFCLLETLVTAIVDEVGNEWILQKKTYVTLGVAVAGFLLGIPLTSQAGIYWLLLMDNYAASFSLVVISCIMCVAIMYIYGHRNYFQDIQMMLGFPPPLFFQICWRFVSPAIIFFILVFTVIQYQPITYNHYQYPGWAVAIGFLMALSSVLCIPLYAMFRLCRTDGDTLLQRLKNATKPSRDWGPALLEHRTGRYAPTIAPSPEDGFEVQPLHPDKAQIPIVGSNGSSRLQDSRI

Ki [µM] | SMILES
≤ 10 | O=S(=O)(CC1CC1)NCc1cccc(C(Cc2ccccc2)CN2CCOCC2)c1 (centres unmarked) [Example 22, N-[3-(1-Benzyl-2-morpholin-4-yl-ethyl)-benzyl]-C-cyclopropyl-methanesulfonamide, hydrochloride]
≤ 0.1 | CN1CC(Cc2ccccc2)(c2cccc(OCCNS(=O)(=O)c3cn(C)cn3)c2)C1 [Example 78, 1-Methyl-1H-imidazole-4-sulfonic acid {2-[3-(3-benzyl-1-methyl-azetidin-3-yl)phenoxy]-ethyl}-amide]
